According to the supplement of paper PMC10307832:

How the values were obtained:
Experiment in all cases: relative viability (nuclei count vs DMSO), 5 days (fraction); higher = more cells survive
AT9283 + Tozasertib = compound: O=C(Nc1c[nH]nc1-c1nc2ccc(CN3CCOCC3)cc2[nH]1)NC1CC1 [AT9283] + Cc1cc(Nc2cc(N3CCN(C)CC3)nc(Sc3ccc(NC(=O)C4CC4)cc3)n2)n[nH]1 [Tozasertib] (partner 0.1 µM)
Summary of the method: (§1)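 For relative viability, nuclei counts in treated wells were divided by those in vehicle wells. Lung cancer cell lines had been pin-tool dosed in 1536-well plates the day after seeding and cultured for 5 days, then fixed and stained in one step (final 0.05% Triton X-100, 1% formaldehyde, 1 ug/ml Hoechst) and imaged at 4×. Doses were one drug alone or a fixed anchor-drug dose plus five library-drug doses (not always all listed) in √10 steps, and values are duplicate-plate medians.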

Erlotinib + Olaparib = compound: C#Cc1cccc(Nc2ncnc3cc(OCCOC)c(OCCOC)cc23)c1 [Erlotinib] + O=C(c1cc(Cc2n[nH]c(=O)c3ccccc23)ccc1F)N1CCN(C(=O)C2CC2)CC1 [Olaparib] (partner 8 µM)
Summary of the method: as §1

Erlotinib + Luminespib = compound: C#Cc1cccc(Nc2ncnc3cc(OCCOC)c(OCCOC)cc23)c1 [Erlotinib] + CCNC(=O)c1noc(-c2cc(C(C)C)c(O)cc2O)c1-c1ccc(CN2CCOCC2)cc1 [Luminespib] (partner 0.01 µM)
Summary of the method: as §1

Erlotinib + OSI-027 = compound: C#Cc1cccc(Nc2ncnc3cc(OCCOC)c(OCCOC)cc23)c1 [Erlotinib] + COc1cccc2cc(-c3nc([C@H]4CC[C@H](C(=O)O)CC4)n4ncnc(N)c34)[nH]c12 [OSI-027] (partner 0.5 µM)
Summary of the method: as §1

AT9283 + Foretinib = compound: O=C(Nc1c[nH]nc1-c1nc2ccc(CN3CCOCC3)cc2[nH]1)NC1CC1 [AT9283] + COc1cc2c(Oc3ccc(NC(=O)C4(C(=O)Nc5ccc(F)cc5)CC4)cc3F)ccnc2cc1OCCCN1CCOCC1 [Foretinib] (partner 0.25 µM)
Summary of the method: as §1

| Cell Line | relative viability (AT9283 + Tozasertib; first compound 0.003 µM) | relative viability (AT9283 + Tozasertib; first compound 0.03 µM) | relative viability (AT9283 + Tozasertib; first compound 0.09487 µM) | relative viability (AT9283 + Tozasertib; first compound 0.3 µM) | relative viability (Erlotinib + Olaparib; first compound 0.02 µM) | relative viability (Erlotinib + Olaparib; first compound 0.2 µM) | relative viability (Erlotinib + Olaparib; first compound 0.6325 µM) | relative viability (Erlotinib + Olaparib; first compound 2 µM) | relative viability (Erlotinib + Luminespib; first compound 0.02 µM) | relative viability (Erlotinib + Luminespib; first compound 0.2 µM) | relative viability (Erlotinib + Luminespib; first compound 0.6325 µM) | relative viability (Erlotinib + Luminespib; first compound 2 µM) | relative viability (Erlotinib + OSI-027; first compound 0.02 µM) | relative viability (Erlotinib + OSI-027; first compound 0.2 µM) | relative viability (Erlotinib + OSI-027; first compound 0.6325 µM) | relative viability (Erlotinib + OSI-027; first compound 2 µM) | relative viability (AT9283 + Foretinib; first compound 0.003 µM) | relative viability (AT9283 + Foretinib; first compound 0.03 µM) | relative viability (AT9283 + Foretinib; first compound 0.09487 µM) | relative viability (AT9283 + Foretinib; first compound 0.3 µM) |
| --- | --- | --- | --- | --- | --- | --- | --- | --- | --- | --- | --- | --- | --- | --- | --- | --- | --- | --- | --- | --- |
| NCI-H1993 | 0.6 | 0.571 | 0.611 | 0.491 | 0.91 | 0.606 | 0.748 | 0.658 | 0.812 | 0.611 | 0.566 | 0.508 | 0.6 | 0.534 | 0.555 | 0.699 | 0.82 | 0.603 | 0.61 | 0.534 |
| NCI-H2347 | 0.517 | 0.456 | 0.336 | 0.326 | 0.601 | 0.587 | 0.526 | 0.562 | 1.25 | 0.557 | 0.441 | 0.902 | 0.345 | 0.444 | 0.415 | 0.272 | 0.844 | 0.869 | 0.672 | 0.446 |
| NCI-H1734 | 0.255 | 0.249 | 0.233 | 0.186 | 0.61 | 0.588 | 0.583 | 0.545 | 0.202 | 0.212 | 0.194 | 0.197 | 0.621 | 0.586 | 0.608 | 0.504 | 0.904 | 0.309 | 0.334 | 0.246 |
| LCLC-97TM1 | 0.199 | 0.123 | 0.18 | 0.181 | 0.45 | 0.352 | 0.508 | 0.321 | 0.901 | 0.798 | 0.948 | 0.824 | 0.697 | 0.553 | 0.504 | 0.489 | 0.938 | 0.49 | 0.163 | 0.176 |
| HOP-62 | 0.34 | 0.263 | 0.213 | 0.265 | 0.446 | 0.307 | 0.508 | 0.415 | 0.988 | 0.949 | 0.855 | 0.881 | 0.917 | 0.848 | 1.04 | 0.754 | 1.12 | 0.667 | 0.324 | 0.321 |
| NCI-H2405 | 0.689 | 0.418 | 0.272 | 0.261 | 0.965 | 0.849 | 0.888 | 0.81 | 0.6 | 0.655 | 0.598 | 0.755 | 0.701 |  | 0.614 | 0.591 | 1.05 | 0.82 | 0.352 | 0.312 |
| RERF-LC-KJ | 0.42 | 0.242 | 0.203 | 0.247 | 1 | 0.86 | 0.994 | 0.852 | 1.32 | 0.993 | 1.23 |  | 0.528 | 0.417 | 0.394 | 0.337 | 0.922 | 0.498 | 0.279 | 0.22 |
| NCI-H1915 | 0.347 | 0.3 | 0.195 | 0.179 | 0.25 | 0.264 | 0.25 | 0.222 | 0.819 | 0.777 | 0.908 | 0.725 | 0.651 | 0.713 | 0.679 | 0.55 | 1.04 | 0.995 | 0.451 | 0.256 |
| NCI-H1666 | 0.671 | 0.479 | 0.428 | 0.43 | 0.787 | 0.793 | 0.676 | 0.645 | 0.969 | 0.941 | 1.01 | 0.713 | 0.83 | 0.741 | 0.624 | 0.565 | 1.01 | 0.725 | 0.534 | 0.496 |
| NCI-H1650 | 0.386 | 0.328 | 0.36 | 0.35 | 0.821 | 0.685 | 0.61 | 0.644 | 0.218 | 0.188 | 0.206 | 0.21 | 0.533 | 0.515 | 0.472 | 0.33 | 1.2 | 0.985 | 0.46 | 0.327 |
| NCI-H322M | 0.499 | 0.511 | 0.395 | 0.443 | 0.776 | 0.67 | 0.631 | 0.551 | 0.806 | 0.595 | 0.528 | 0.443 | 0.533 | 0.483 | 0.406 | 0.394 | 0.958 | 0.544 | 0.41 | 0.462 |
| LC-2-ad | 0.422 | 0.285 | 0.321 | 0.25 | 0.709 | 0.785 | 0.692 | 0.625 | 1.13 | 0.976 | 1.17 | 0.745 |  | 0.837 | 0.725 | 0.475 | 0.881 | 0.71 | 0.336 | 0.225 |
| LCLC-103H | 0.45 | 0.347 | 0.187 | 0.259 | 0.745 | 0.75 |  | 0.707 | 0.99 | 0.884 | 1.05 | 0.821 | 0.537 | 0.469 | 0.43 | 0.417 | 0.737 | 0.732 | 0.258 | 0.219 |
| NCI-H661 | 0.347 | 0.344 | 0.389 | 0.37 | 0.801 | 0.79 | 0.74 | 0.615 | 0.903 | 0.933 | 0.882 | 0.736 | 0.748 | 0.707 | 0.655 | 0.443 | 1.01 | 0.472 | 0.384 | 0.364 |
| HCC-827 | 0.409 | 0.374 | 0.337 | 0.257 | 0.243 | 0.147 | 0.149 | 0.139 | 0.238 | 0.218 | 0.211 | 0.182 | 0.411 | 0.15 | 0.112 | 0.126 | 1.05 | 0.745 | 0.331 | 0.244 |
| NCI-H2023 | 0.388 | 0.232 | 0.19 | 0.18 | 0.46 | 0.43 | 0.54 | 0.432 | 0.721 | 0.72 | 0.81 | 0.629 | 0.428 | 0.338 | 0.285 | 0.192 | 0.739 | 0.86 | 0.301 | 0.108 |
| NCI-H2342 | 0.555 | 0.453 | 0.403 | 0.344 | 0.378 | 0.425 | 0.462 | 0.383 | 0.731 | 0.609 | 0.573 | 0.739 | 0.596 | 0.635 | 0.556 | 0.55 | 1.2 | 1.01 | 0.547 | 0.367 |
